# Measured values reported in patent publication EP1019392B1, “TRICYCLIC AMIDES USEFUL FOR INHIBITION OF G-PROTEIN FUNCTION AND FOR TREATMENT OF PROLIFERATIVE DISEASES” (SCHERING CORPORATION, priority 1995, dated 1997).
# Read-outs that look alike come from different tables or passages of the source.
# Experiments:
# [1] = molecular target: T1, farnesyl protein transferase (FPT) (Rattus norvegicus, UniProt Q02293+Q04631); test: In vitro enzyme assay: inhibition of farnesyl protein transferase (transfer of [3H]farnesyl to Ras-CVLS); type: biochemical; settings: partially purified rat brain FPT, Ras-CVLS
# T1 construct: were partially purified from rat brain by ammonium sulfate fractionation followed by Q-Sepharose; from tissue; host or cells: rat brain
# Method: • 1. In vitro enzyme assays: Inhibition of farnesyl protein transferase and geranylgeranyl protein transferase. […] Human farnesyl protein transferase was also expressed in E. coli, using cDNA clones encoding both the a and b subunits. […] Human farnesyl protein transferase was partially-purified from the soluble protein fraction of E. coli as described above. […] Two forms of val^12-Ha-Ras protein were prepared as substrates for these enzymes, differing in their carboxy terminal sequence. One form terminated in cysteine-valine-leucine-serine (Ras-CVLS) the other in cystein-valine-leucine-leucine (Ras-CVLL). Ras-CVLS is a substrate for the farnesyl protein transferase while Ras-CVLL is a substrate for geranylgeranyl protein transferase I. The cDNAs encoding these proteins were constructed so that the proteins contain an amino-terminal extension of 6 histidine residues. Both proteins were expressed in Escherichia coli and purified using metal chelate affinity chromatography. The radiolabelled isoprenyl pyrophosphate substrates, [^3H]farnesyl pyrophosphate and [^3H]geranylgeranyl pyrophosphate, were purchased from DuPont/New England Nuclear. […] The reaction was allowed to proceed for 30 minutes at room temperature and then stopped with 0.5 ml of 4% sodium dodecyl sulfate (SDS) followed by 0.5 ml of cold 30% TCA. Samples were allowed to sit on ice for 45 minutes and precipitated Ras protein was then collected on GF/C filter paper mats using a Brandel cell harvester. […] Percent inhibition was calculated relative to the DMSO vehicle control. The geranylgeranyl protein transferase I assay was essentially identical to the farnesyl protein transferase assay described above, with two exceptions: [^3H]geranylgeranylpyrophosphate replaced farnesyl pyrophosphate as the isoprenoid donor and Ras-CVLL was the protein acceptor. […] Cell-Based Assay: Transient expression of val^12-Ha-Ras-CVLS and val^12-Ha-Ras-CVLL in COS monkey kidney cells: Effect of farnesyl protein transferase inhibitors on Ras processing and on disordered cell growth induced by transforming Ras. COS monkey kidney cells were transfected by electroporation with the plasmid pSV-SPORT (Gibco/BRL) containing a cDNA insert encoding either Ras-CVLS or Ras-CVLL, leading to transient overexpression of a Ras substrate for either farnesyl protein transferase or geranylgeranyl protein transferase I, respectively (see above). Following electroporation, cells were plated into 6-well tissue culture dishes containing 1.5 ml of Dulbecco's-modified Eagle's media (GIBCO, Inc.) supplemented with 10% fetal calf serum and the appropriate farnesyl protein transferase inhibitors. After 24 hours, media was removed and fresh media containing the appropriate drugs was re-added. 48 hours after electroporation cells were examined under the microscope to monitor disordered cell growth induced by transforming Ras. Cells expressing transforming Ras become more rounded and refractile and overgrow the monolayer, reminiscent of the transformed phenotype. Cells were then photographed, washed twice with 1 ml of cold phosphate-buffered saline (PBS) and removed from the dish by scraping with a rubber policeman into 1 ml of a buffer containing 25 mM Tris, pH 8.0; 1 mM ethylenediamine tetraacetic acid; 1 mM phenylmethylsulfonyl fluoride; […] leupeptin; and 0.1 mM pepstatin. Cells were lysed by homogenization and cell debris was removed by centrifugation at 2000 x g for 10 min. Cellular protein was precipitated by addition of ice-cold trichloroacetic acid and redissolved in […] of SDS-electrophoresis sample buffer. […] Proteins resolved on the gels were electroblotted onto nitrocellulose membranes for immunodetection. […] After washing, membranes were incubated for one hour at room temperature with a 1:5000 dilution of secondary antibody, rabbit anti-rat IgG conjugated to horseradish peroxidase, in PBS containing 1% fetal calf serum.
# [2] = tested on: T24-BAG4 human bladder carcinoma cells expressing an activated H-ras gene; test: Cell Mat Assay, T24 tumor cells; type: cell-based; settings: read-out: Tumor (T-24) IC50
# [3] = tested on: DLD-1-BAG human colon carcinoma cells expressing as activated K-ras gene; test: Cell Mat Assay, DLD-1 tumor cells; type: cell-based
# [4] = tested on: SW620-BAG human colon carcinoma cells expressing an activated K-ras gene; test: Cell Mat Assay, SW620 tumor cells; type: cell-based
# [5] = tested on: Normal human HEPM fibroblasts; test: Cell Mat Assay, normal cell mat; type: cell-based; settings: normal monolayer
# [6] = tested on: Ras-CVLS processing in COS monkey kidney cells; test: COS cell assay: inhibition of Ras-CVLS processing (Western blot); type: cell-based
# Text: • 1. In vitro enzyme assays: Inhibition of farnesyl protein transferase and geranylgeranyl protein transferase. Both farnesyl protein transferase (FPT) and geranylgeranyl protein transferase (GGPT) I were partially purified from rat brain by ammonium sulfate fractionation followed by Q-Sepharose (Pharmacia, Inc.) anion exchange chromatography essentially as described by Yokoyama et al (Yokoyama, K., et al., (1991), A protein geranylgeranyltransferase from bovine brain: Implications for protein prenylation specificity, Proc. Natl. Acad. Sci USA 88: 5302-5306, the disclosure of which is incorporated herein by reference thereto). Human farnesyl protein transferase was also expressed in E. coli, using cDNA clones encoding both the a and b subunits. The methods used were similar to those published (Omer, C. et al., (1993), Characterization of recombinant human farnesyl protein transferase: Cloning, expression, farnesyl diphosphate binding, and functional homology with yeast prenyl-protein transferases, Biochemistry 32:5167-5176). Human farnesyl protein transferase was partially-purified from the soluble protein fraction of E. coli as described above. […] Two forms of val^12-Ha-Ras protein were prepared as substrates for these enzymes, differing in their carboxy terminal sequence. One form terminated in cysteine-valine-leucine-serine (Ras-CVLS) the other in cystein-valine-leucine-leucine (Ras-CVLL). Ras-CVLS is a substrate for the farnesyl protein transferase while Ras-CVLL is a substrate for geranylgeranyl protein transferase I. The cDNAs encoding these proteins were constructed so that the proteins contain an amino-terminal extension of 6 histidine residues. Both proteins were expressed in Escherichia coli and purified using metal chelate affinity chromatography. The radiolabelled isoprenyl pyrophosphate substrates, [^3H]farnesyl pyrophosphate and [^3H]geranylgeranyl pyrophosphate, were purchased from DuPont/New England Nuclear. Several methods for measuring farnesyl protein transferase activity have been described (Reiss et al 1990, Cell 62: 81; Schaber et al 1990, J. Biol. Chem. 265: 14701; Manne et al 1990, PNAS 87: 7541; and Barbacid & Manne 1993, U.S. Patent No. 5,185,248). […] The reaction was allowed to proceed for 30 minutes at room temperature and then stopped with 0.5 ml of 4% sodium dodecyl sulfate (SDS) followed by 0.5 ml of cold 30% TCA. Samples were allowed to sit on ice for 45 minutes and precipitated Ras protein was then collected on GF/C filter paper mats using a Brandel cell harvester. Filter mats were washed once with 6% TCA, 2% SDS and radioactivity was measured in a Wallac 1204 Betaplate BS liquid scintillation counter. Percent inhibition was calculated relative to the DMSO vehicle control. The geranylgeranyl protein transferase I assay was essentially identical to the farnesyl protein transferase assay described above, with two exceptions: [^3H]geranylgeranylpyrophosphate replaced farnesyl pyrophosphate as the isoprenoid donor and Ras-CVLL was the protein acceptor. […] Cell-Based Assay: Transient expression of val^12-Ha-Ras-CVLS and val^12-Ha-Ras-CVLL in COS monkey kidney cells: Effect of farnesyl protein transferase inhibitors on Ras processing and on disordered cell growth induced by transforming Ras. COS monkey kidney cells were transfected by electroporation with the plasmid pSV-SPORT (Gibco/BRL) containing a cDNA insert encoding either Ras-CVLS or Ras-CVLL, leading to transient overexpression of a Ras substrate for either farnesyl protein transferase or geranylgeranyl protein transferase I, respectively (see above). Following electroporation, cells were plated into 6-well tissue culture dishes containing 1.5 ml of Dulbecco's-modified Eagle's media (GIBCO, Inc.) supplemented with 10% fetal calf serum and the appropriate farnesyl protein transferase inhibitors. After 24 hours, media was removed and fresh media containing the appropriate drugs was re-added.
# [7] = tested on: DLD-1 (human colon carcinoma cells, ATCC # CCL 221); test: In Vivo Anti-Tumor Studies, subcutaneous DLD-1 tumors; parameters: species or system athymic nu/nu female mice; settings: Mus musculus, DLD-1, po, QID, 4 weeks, range over the listed compounds
# Text: Tumor cells (5 X 10^5 to 8 X 10^6) of DLD-1 (human colon carcinoma cells, ATCC # CCL 221) are innolculated subcutaneously into the flank of 5-6 week o;d athymic nu/nu female mice.
# [8] = Homo sapiens, SW-620, Mat assay
Structure (SMILES),"IC50 ([1]; Table 1, read-out: FPT IC50) [nM]",IC50 ([2]; Homo sapiens) [nM],"IC50 ([3]; Homo sapiens, DLD-1, Mat assay) [nM]","IC50 [4, 8] [nM]","IC50 ([6]; Primates, COS) [nM]",other results
"O=C(Cc1cc[n+]([O-])cc1)N1CCN(C2c3ncc(Br)cc3CCc3cc(Cl)cc(Cl)c32)CC1 (single isomer, unassigned) [Example 19]",< 3.8,< 1600,< 1600,6250,,"IC50 ([5]; Homo sapiens, Fibroblast): > 25000 nM"
"O=C(Cc1cc[n+]([O-])cc1)N1CCC(C2c3ncc(Br)cc3CCc3cc(Cl)cc(Br)c32)CC1 (single isomer, unassigned) [Example 9A]",,< 1600,,,850,
NC(=O)N1CCC(CC(=O)N2CCN([C@H]3c4ccc(Cl)c(Br)c4CCc4cc(Br)cnc43)CC2)CC1 [Example 6],3.1,< 1600,4000,6240,40,inhibition in vivo at 10 mg/kg ([7]; 10 mg/kg p.o.): 7 to 50%; inhibition in vivo at 50 mg/kg ([7]; 50 mg/kg p.o.): 35.4 to 83%
NC(=O)N1CCC(CC(=O)N2CCC(=C3c4ncc(Br)cc4CCc4cc(Cl)cc(Br)c43)CC2)CC1 (racemic) [Example 8],,< 1600,3100,3100,< 250,"IC50 ([5]; Homo sapiens, Fibroblast): > 25000 nM"
"O=C(Cc1cc[n+]([O-])cc1)N1CCN(C2c3ncc(Br)cc3CCc3cccc(Cl)c32)CC1 (single isomer, unassigned) [Example 20]",,,,,~30,
O=C(Cc1cc[n+]([O-])cc1)N1CCC(C2c3ncc(Br)cc3CCc3cc(Cl)cc(Br)c32)CC1 (stereo not drawn) [Example 9B],,,,,,"IC50 ([1]; FPT IC50, Table 1): 3 nM"
NC(=O)N1CCC(CC(=O)N2CCC(C3c4ncc(Br)cc4CCc4cc(Cl)cc(Br)c43)CC2)CC1 (stereo not drawn) [Example 10B],,,,,,IC50 [2]: < 1600 nM; IC50 ([3]; Mat assay): 1600 nM; IC50 ([4]; Mat assay): 1600 nM; IC50 [5]: > 25000 nM
"NC(=O)N1CCC(CC(=O)N2CCC(C3c4ccc(Cl)c(Br)c4CCc4cc(Br)cnc43)CC2)CC1 (single isomer, unassigned) [Example 13A]",,,6250,,,IC50 [6]: > 1000 nM; IC50 ([4]; Mat assay): 6250 nM
O=C(Cc1cc[n+]([O-])cc1)N1CCN(C2c3ncc(Br)cc3CCc3cc(Cl)cc(Br)c32)CC1 (racemic) [Example 11],2,,,,< 250,
